In US5182258A, “Systemic delivery of polypeptides through the eye” (Orbon Corporation, priority 1989, dated 1993):
Blank lines part the entries; values can stand above or below the compound they belong to.

What was measured:
[1] = for effect of peptidase inhibitors on systemic absorption of TRH: 4 mM, Bestatin, 60 uM, D,L-Thiorphan, 0.6 uM, ocular TRH
[2] = Absorption of insulin into systemic circulation via the eyes or i.v. (125I blood level); assay type: in vivo, rabbit; settings: ocular insulin plus leucine-leucine
[3] = Enkephalin-equivalent remaining in eye tissues at the end of 12 hr experiment
[4] = Blood enkephalin-equivalent concentration after ocular or i.v. enkephalin

Structure (SMILES): O=C(O)CNC(=O)C(CS)Cc1ccccc1 (racemic) [D,L-Thiorphan, D,L-thiorphan]
- effect of peptidase inhibitors on systemic absorption of TRH ([1]; Leu-Leu): did not significantly enhance the systemic absorption of TRH

- eye drop concentration sufficient to reach therapeutic effective blood concentration ([1]; rabbit, in vivo): 0.005%
Structure (SMILES): CC(C)C[C@H](NC(=O)CNC(=O)[C@H](Cc1ccc(O)cc1)NC(=O)[C@H](CO)NC(=O)[C@H](Cc1c[nH]c2ccccc12)NC(=O)[C@H](Cc1cnc[nH]1)NC(=O)[C@@H]1CCC(=O)N1)C(=O)N[C@@H](CCCNC(=N)N)C(=O)N1CCC[C@H]1C(=O)NCC(N)=O [LHRH, luteinizing hormone-releasing hormone]

Structure (SMILES): CC(C)C[C@H](NC(=O)[C@@H](N)CC(C)C)C(=O)O [Leu-Leu, leucine-leucine]
- effect of peptidase inhibitors on systemic absorption of TRH ([1]; Leu-Leu): did not significantly enhance the systemic absorption of TRH
- effect of peptidase inhibitor on systemic absorption of LHRH ([1]; Leu-Leu, 5 mM, ocular LHRH): did increase the systemic absorption of LHRH significantly
- effect of peptidase inhibitor on systemic absorption of glucagon ([1]; Leu-Leu, 5 mM, ocular glucagon): did not increase the systemic absorption of glucagon
- effect of added peptidase inhibitor on insulin absorption [2]: did not significantly improve insulin absorption

- eye drop concentration giving a therapeutic blood concentration ([1]; rabbit, in vivo): ≥ 0.0025%
- peak blood TRH concentration ([1]; rabbit, in vivo): 138 ng/mL
- steady state blood TRH concentration after the peak ([1]; rabbit, in vivo): 60 ng/mL
- time from the peak to steady state ([1]; rabbit, in vivo): 9 h
- time to peak ([1]; rabbit, in vivo): 60 min
Structure (SMILES): NC(=O)[C@@H]1CCCN1C(=O)[C@H](Cc1cnc[nH]1)NC(=O)[C@@H]1CCC(=O)N1 [TRH, Thyrotrophin-releasing hormone]

Structure (SMILES): CC(C)C[C@H](NC(=O)[C@H](Cc1ccccc1)NC(=O)CNC(=O)CNC(=O)[C@@H](N)Cc1ccc(O)cc1)C(=O)O [enkephalin, Leucine-enkephalin (5-L-leucine)]
- actual concentration of enkephalin in the lens compared with other tissues [3]: lowest among all tissues
- Tx of decline of blood concentration ([4]; 50 ug i.v.): less than 30 min
- lowest point of blood concentration ([4]; 50 ug i.v., in 5 hrs): 22 ng/mL
- plateau blood enkephalin concentration ([4]; 1% enkephalin instilled into eye): 72 ng/mL
- plateau blood enkephalin concentration ([4]; 5% enkephalin instilled into eye): 233 ng/mL
